# Reference: patent US11691972B2, “Compounds for targeted degradation of BRD9” (C4 Therapeutics, Inc., priority 2020, dated 2023)
# pIC50: −log10 of the molar value. Where two headings read alike, the source gives them in different places.
# Legend:
# BRD9 [1] = molecular target: T1, BRD9 (Homo sapiens, UniProt Q9H8M2); test: Protein degradation by HiBiT luminescent readout (BRD9, BRD7, BRD4); format: cell-based; parameters: endogenously expressing BRD9 with HiBiT fusion tag via CRISPR; host or cells: 293T.166 (BRD9-HiBiT), also expressing LgBiT ectopically; conditions: FIG. 11
# T1 sequence (Q9H8M2 1-597): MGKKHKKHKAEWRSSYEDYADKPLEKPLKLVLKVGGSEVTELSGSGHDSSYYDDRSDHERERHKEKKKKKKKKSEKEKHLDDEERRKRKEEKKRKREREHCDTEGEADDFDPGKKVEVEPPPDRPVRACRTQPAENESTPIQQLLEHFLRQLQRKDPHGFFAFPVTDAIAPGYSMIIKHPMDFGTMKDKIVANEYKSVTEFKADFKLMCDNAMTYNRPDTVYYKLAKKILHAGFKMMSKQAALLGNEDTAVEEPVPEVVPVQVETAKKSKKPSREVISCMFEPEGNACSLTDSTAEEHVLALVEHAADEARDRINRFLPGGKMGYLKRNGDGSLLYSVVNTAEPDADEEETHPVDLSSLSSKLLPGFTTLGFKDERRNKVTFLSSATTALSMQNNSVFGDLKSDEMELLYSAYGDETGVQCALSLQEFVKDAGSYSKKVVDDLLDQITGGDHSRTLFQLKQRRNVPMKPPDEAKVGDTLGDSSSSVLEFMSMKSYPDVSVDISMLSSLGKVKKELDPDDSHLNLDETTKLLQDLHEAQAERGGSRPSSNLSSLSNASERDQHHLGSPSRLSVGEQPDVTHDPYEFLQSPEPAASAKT
# BRD9 [2] = molecular target: T1, BRD9; test: Western blot of endogenous BRD9 degradation in A204, HS-SY-II, SW982 and Yamato SS cells; format: cell-based; parameters: endogenous in cells; host or cells: Yamato-SS (human synovial sarcoma); conditions: SW982, Yamato SS cells, 6 hours, FIG. 15
# Protocol: The top left represents the malignant human rhabdoid tumor (A204), top right represents the human synovial sarcoma (HS-SY-II), the bottom left represents human soft tissue sarcoma (SW982, BAF wildtype) and the bottom right represents synovial sarcoma (Yamato SS), all via western blot.
# Cells were plated at 500,000 cells/well in a 6-well plate and allowed to adhere for 16 hours. Each cell line was treated with Compound 176 serially diluted in DMSO for 6 hours. Cell pellets were collected, lysed with RIPA lysis buffer in the presence of protease inhibitors, and run on a 4-12% acrylamide gel for 45 minutes at 150V. Proteins were transferred to a nitrocellulose membrane and incubated with antibodies against BRD9 (1:1000; Cell Signaling Technology, #71232) or Vinculin (1:10,000; EMD, 05-386) overnight with agitation at 4° C. Blots were thrice washed with tris-buffered saline+0.05% tween-20 and incubated with host-directed fluorescently-conjugated antibodies for 1 hour at room temperature. Blots were thrice washed and imaged on a LiCor Odyssey CLx.
# [3] = tested on: Synovial Sarcoma PDX model (SA13412); test: Tumor volume in the Synovial Sarcoma PDX model (SA13412); format: in vivo; conditions: various concentrations, FIG. 23
# [4] = tested on: BAF wildtype synovial sarcoma cells (SW982); test: Confluence (growth) over time in SW982 cells; format: cell-based, human; conditions: various concentrations, FIG. 17
# CYP 2E1 = CYP 2E1 (Homo sapiens, UniProt P05181); test: CYP inhibition 2E1; format: in vitro ADME
# CYP 2C19 = CYP 2C19 (Homo sapiens, UniProt P33261); test: CYP TDI (time-dependent inhibition); format: in vitro ADME
# IV PK, dog = format: in vivo
# CYP 2D6 = CYP 2D6 (Homo sapiens, UniProt P10635); test: CYP inhibition 2D6; format: in vitro ADME
# Caco-2 permeability = format: in vitro ADME; conditions: human
# BRD9 [5] = molecular target: T1, BRD9; test: BRD9 degradation kinetics; format: cell-based; parameters: endogenously expressing BRD9 with HiBiT fusion tag via CRISPR; host or cells: 293T.166 (BRD9-HiBiT), also expressing LgBiT ectopically
# SALL4 = SALL4 (Homo sapiens, UniProt Q9UJQ4); test: SALL4 degradation; format: cell-based; conditions: one value given for IKZF1/SALL4/GSPT1
# SA13412 = test: Synovial sarcoma patient derived xenograft (PDX) model (SA13412), tumor volume; format: in vivo, mice; conditions: 40 mg/kg orally once a day, 20 days of treatment
# Protocol: The x-axis is days after start of treatment measured in days and the y-axis is tumor volume measured in mm^3. The mice were dosed with 40 mg/kg of Compound 172 orally once a day. […] The x axis is treatment measured in days and the y axis is mean tumor volume+SEM measured in cubic millimeters (mm^3). Compound 176 was dosed at 50 mg/kg once a day, 25 mg/kg twice a day, and 16.6 mg/kg three times a day.
# CYP 2C9 = CYP 2C9 (Homo sapiens, UniProt P11712); test: CYP inhibition 2C9; format: in vitro ADME
# CYP 2B6 = CYP 2B6 (Homo sapiens, UniProt P20813); test: CYP inhibition 2B6; format: in vitro ADME
# CYP 2C8 = CYP 2C8 (Homo sapiens, UniProt P10632); test: CYP inhibition 2C8; format: in vitro ADME
# GSPT1 = GSPT1 (Homo sapiens, UniProt P15170); test: GSPT1 degradation; format: cell-based; conditions: one value given for IKZF1/SALL4/GSPT1
# BRD9 [6] = molecular target: T1, BRD9; test: In-vivo BRD9 degradation in the Aska-SS xenograft model; conditions: various concentrations and times, FIG. 13
# IKZF1 = IKZF1 (Homo sapiens, UniProt Q13422); test: IKZF1 degradation; format: cell-based; conditions: one value given for IKZF1/SALL4/GSPT1
# HEPG2 = HEPG2 viability; format: cell-based; conditions: HEPG2 cells
# Chain of CYP 2C19 (P33261 whole entry): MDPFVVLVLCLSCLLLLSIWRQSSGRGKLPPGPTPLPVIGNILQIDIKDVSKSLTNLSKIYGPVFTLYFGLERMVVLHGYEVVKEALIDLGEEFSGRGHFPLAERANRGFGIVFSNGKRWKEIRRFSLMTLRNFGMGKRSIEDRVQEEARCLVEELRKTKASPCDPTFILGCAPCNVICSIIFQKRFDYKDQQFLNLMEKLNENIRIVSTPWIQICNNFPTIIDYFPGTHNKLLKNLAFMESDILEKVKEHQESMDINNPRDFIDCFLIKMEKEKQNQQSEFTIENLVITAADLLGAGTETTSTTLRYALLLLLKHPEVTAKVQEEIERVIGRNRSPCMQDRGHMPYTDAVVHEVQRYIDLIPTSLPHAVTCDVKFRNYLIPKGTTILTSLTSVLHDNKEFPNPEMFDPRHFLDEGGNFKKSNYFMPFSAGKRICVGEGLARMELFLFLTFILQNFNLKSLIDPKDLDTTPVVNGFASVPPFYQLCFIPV
# Chain of CYP 2C8 (P10632 whole entry): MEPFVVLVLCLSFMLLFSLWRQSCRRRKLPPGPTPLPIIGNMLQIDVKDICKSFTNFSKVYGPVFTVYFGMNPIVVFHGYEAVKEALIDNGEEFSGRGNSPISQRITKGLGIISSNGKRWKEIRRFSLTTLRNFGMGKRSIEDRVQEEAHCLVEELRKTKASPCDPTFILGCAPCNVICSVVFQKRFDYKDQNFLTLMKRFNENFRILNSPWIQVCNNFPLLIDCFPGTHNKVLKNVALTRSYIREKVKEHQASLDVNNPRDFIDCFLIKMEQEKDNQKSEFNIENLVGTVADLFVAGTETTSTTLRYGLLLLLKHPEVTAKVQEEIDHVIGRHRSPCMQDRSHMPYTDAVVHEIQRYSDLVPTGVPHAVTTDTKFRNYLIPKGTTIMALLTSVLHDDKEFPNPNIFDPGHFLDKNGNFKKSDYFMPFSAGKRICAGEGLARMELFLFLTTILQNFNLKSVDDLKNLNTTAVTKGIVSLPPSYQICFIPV
# Chain of CYP 2D6 (P10635 whole entry): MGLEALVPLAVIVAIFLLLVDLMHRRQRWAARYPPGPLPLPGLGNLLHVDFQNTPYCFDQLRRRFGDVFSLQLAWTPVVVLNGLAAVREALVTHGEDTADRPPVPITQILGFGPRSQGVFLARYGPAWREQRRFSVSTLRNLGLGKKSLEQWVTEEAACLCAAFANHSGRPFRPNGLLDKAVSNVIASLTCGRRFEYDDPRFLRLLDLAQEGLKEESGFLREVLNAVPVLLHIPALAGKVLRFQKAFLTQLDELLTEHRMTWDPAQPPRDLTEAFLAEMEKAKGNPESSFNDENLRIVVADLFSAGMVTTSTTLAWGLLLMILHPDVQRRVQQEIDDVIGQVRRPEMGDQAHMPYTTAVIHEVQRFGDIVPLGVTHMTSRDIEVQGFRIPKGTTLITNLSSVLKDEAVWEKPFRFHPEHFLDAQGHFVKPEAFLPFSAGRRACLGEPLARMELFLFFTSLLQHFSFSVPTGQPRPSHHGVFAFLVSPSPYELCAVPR
# Chain of IKZF1 (Q13422 whole entry, species assumed): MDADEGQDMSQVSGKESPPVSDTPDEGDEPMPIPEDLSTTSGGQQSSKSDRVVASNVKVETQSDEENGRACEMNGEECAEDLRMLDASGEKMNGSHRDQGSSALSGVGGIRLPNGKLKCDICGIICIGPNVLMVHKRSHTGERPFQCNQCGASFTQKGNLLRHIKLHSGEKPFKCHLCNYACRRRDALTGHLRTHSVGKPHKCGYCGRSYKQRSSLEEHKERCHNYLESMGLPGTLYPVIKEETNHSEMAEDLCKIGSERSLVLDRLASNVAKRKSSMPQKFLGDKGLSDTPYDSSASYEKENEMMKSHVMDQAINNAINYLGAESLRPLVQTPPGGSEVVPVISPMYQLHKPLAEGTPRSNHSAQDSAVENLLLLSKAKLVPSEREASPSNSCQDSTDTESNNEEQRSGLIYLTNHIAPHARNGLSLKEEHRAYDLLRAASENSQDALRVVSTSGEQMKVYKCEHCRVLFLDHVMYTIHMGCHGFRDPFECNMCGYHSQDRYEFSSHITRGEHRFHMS
# Chain of CYP 2C9 (P11712 whole entry): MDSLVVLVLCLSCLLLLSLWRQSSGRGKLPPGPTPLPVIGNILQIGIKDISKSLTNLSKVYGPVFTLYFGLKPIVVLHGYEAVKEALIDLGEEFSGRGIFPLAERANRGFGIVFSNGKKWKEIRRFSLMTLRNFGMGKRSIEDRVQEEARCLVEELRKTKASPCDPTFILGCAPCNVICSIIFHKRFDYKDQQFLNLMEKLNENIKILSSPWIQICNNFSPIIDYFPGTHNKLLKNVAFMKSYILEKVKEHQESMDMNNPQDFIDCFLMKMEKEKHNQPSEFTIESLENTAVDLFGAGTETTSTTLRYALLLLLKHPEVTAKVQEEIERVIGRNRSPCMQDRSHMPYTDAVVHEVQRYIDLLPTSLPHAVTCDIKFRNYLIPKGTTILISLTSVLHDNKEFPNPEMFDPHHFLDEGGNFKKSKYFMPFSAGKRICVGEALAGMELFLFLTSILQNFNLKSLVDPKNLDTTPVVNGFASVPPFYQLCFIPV
# Chain of GSPT1 (P15170 whole entry, species assumed): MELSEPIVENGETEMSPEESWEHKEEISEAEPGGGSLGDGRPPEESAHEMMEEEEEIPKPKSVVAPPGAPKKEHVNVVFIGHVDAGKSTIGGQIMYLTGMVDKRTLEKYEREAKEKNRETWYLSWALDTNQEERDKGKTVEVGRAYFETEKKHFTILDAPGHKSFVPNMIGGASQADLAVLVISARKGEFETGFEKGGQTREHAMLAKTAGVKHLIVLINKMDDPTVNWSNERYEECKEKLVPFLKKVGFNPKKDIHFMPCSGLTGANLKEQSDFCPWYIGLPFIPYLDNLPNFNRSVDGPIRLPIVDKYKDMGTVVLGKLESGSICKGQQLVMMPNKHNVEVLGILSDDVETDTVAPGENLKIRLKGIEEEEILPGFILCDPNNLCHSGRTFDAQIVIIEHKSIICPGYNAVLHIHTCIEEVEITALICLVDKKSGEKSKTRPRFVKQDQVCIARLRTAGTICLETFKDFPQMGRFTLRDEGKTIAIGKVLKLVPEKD
# Chain of CYP 2B6 (P20813 whole entry): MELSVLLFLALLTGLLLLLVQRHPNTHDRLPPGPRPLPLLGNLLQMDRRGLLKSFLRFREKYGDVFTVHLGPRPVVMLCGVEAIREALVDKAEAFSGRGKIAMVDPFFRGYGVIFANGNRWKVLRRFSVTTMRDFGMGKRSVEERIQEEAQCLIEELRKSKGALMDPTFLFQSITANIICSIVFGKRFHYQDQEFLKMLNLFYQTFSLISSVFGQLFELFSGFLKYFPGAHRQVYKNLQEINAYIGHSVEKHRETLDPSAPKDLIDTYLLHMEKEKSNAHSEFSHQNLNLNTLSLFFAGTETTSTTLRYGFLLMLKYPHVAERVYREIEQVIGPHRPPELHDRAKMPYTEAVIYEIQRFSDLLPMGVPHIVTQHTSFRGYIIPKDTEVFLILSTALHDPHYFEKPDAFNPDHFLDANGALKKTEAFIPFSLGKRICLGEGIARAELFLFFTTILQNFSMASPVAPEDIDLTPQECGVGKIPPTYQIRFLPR
# Chain of CYP 2E1 (P05181 whole entry): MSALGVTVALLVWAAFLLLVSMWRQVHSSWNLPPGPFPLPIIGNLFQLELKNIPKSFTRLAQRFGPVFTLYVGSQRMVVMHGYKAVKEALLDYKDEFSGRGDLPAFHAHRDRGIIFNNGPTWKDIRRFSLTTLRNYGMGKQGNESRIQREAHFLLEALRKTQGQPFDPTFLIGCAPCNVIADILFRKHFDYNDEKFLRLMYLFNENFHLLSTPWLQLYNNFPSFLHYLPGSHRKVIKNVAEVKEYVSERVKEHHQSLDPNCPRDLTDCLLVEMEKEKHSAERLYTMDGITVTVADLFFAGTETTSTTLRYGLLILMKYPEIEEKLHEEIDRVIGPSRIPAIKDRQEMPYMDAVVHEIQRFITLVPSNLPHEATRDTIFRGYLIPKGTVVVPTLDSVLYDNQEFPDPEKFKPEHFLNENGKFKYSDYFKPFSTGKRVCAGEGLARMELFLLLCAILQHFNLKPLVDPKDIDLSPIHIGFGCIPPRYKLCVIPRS
# Chain of SALL4 (Q9UJQ4 whole entry, species assumed): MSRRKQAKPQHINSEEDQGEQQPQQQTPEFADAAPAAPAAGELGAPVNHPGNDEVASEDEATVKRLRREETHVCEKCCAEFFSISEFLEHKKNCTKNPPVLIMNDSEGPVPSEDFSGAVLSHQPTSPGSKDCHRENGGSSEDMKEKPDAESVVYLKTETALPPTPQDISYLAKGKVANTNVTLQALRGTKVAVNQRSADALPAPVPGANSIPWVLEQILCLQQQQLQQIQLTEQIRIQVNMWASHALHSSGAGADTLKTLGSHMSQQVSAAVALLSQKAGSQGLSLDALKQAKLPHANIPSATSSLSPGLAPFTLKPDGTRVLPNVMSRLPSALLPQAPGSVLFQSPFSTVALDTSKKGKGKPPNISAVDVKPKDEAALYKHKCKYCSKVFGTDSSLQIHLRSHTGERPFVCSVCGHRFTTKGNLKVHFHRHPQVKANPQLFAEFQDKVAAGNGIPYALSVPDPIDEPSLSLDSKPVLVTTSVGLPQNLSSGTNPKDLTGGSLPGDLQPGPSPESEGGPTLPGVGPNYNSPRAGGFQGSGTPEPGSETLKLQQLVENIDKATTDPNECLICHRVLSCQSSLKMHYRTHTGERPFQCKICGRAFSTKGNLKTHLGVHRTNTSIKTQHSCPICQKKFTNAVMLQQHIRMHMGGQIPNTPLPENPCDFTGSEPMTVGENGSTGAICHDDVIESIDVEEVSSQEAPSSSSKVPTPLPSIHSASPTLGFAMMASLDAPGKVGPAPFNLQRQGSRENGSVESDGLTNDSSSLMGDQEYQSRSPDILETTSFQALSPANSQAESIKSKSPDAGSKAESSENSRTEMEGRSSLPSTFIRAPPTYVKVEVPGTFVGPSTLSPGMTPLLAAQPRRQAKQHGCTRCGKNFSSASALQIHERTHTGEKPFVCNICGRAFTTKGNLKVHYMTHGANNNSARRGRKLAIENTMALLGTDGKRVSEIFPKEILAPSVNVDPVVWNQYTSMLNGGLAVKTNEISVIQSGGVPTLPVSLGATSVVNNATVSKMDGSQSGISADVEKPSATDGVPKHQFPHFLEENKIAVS
structure (smiles),measurement,setting,value
"COc1cc(-c2cn(C)c(=O)c(C)c2C)cc(OC)c1CN1CCC(N2CCN(c3ccc(NC4CCC(=O)NC4=O)cc3F)CC2)C(F)(F)C1 (single isomer, unassigned) [Compound 176, 3-[4-[4-[1-[[2,6-dimethoxy-4-(1,4,5-trimethyl-6-oxo-3-pyridyl)phenyl]methyl]-3,3-difluoro-4-piperidyl]piperazin-1-yl]-3-fluoro-anilino]piperidine-2,6-dione]","protein degradation levels by HiBiT luminescent readout, BRD9 versus BRD7 and BRD4",BRD9 [1],selective degradation
same,"degradation of alpha BRD9, western blot",BRD9 [2],dose dependent degradation of alpha BRD9
same,mean tumor volume+SEM,[3],efficacy
same,confluence as a percentage of control over time,[4],lack of growth inhibition
"COc1cc(-c2cn(C)c(=O)c(C)c2C)cc(OC)c1CN1CCC(N2CCN(c3ccc(NC4CCC(=O)NC4=O)cc3F)CC2)C(F)(F)C1 (stereo not shown) [Compound 172, 3-[4-[4-[1-[[2,6-dimethoxy-4-(1,4,5-trimethyl-6-oxo-3-pyridyl)phenyl]methyl]-3,3-difluoro-4-piperidyl]piperazin-1-yl]-3-fluoro-anilino]piperidine-2,6-dione]",pIC50,CYP 2E1,4.52
same,pIC50,"CYP 2C19; 2C19, first of two values in brackets, read-out: CYP TDI 2C19, first value",< 4.30
same,pIC50,"CYP 2C19; 2C19, second of two values in brackets, read-out: CYP TDI 2C19, second value",4.62
same,IV PK AUC(0-last),"IV PK, dog; dose-normalised",2343 (h*ng/mL)/(mg/kg)
same,IV PK Cmax,"IV PK, dog; dose-normalised",767 [ng/mL]/(mg/kg)
same,clearance,"IV PK, dog; in vivo, read-out: IV PK CL",6.2 mL/min/kg
same,Vd,"IV PK, dog; in vivo, read-out: IV PK Vdss",4.36 L/kg
same,half-life,"IV PK, dog; in vivo, read-out: IV PK t1/2 (converted)",8.8 h
same,pIC50,CYP 2D6,4.52
same,efflux ratio,Caco-2 permeability,2.64
same,Papp A→B,Caco-2 permeability; A-B,7.1 ×10⁻⁶ cm/s
same,Papp B→A,Caco-2 permeability; B-A,18.7 ×10⁻⁶ cm/s
same,"BRD9 Degradation kinetics, first value","BRD9 [5]; first of three values, not explained",11 nM
same,"BRD9 Degradation kinetics, second value","BRD9 [5]; second of three values, not explained",> 832 nM
same,"BRD9 Degradation kinetics, third value (rate)",BRD9 [5]; third of three values,1.81 h⁻¹
same,DC50,SALL4,> 9.99 µM
same,"tumor volume, PDX model (SA13412)",SA13412,no appreciable tumor growth
same,pIC50,CYP 2C9,4.52
same,pIC50,CYP 2B6,7.00
same,pIC50,CYP 2C8,4.52
same,DC50,GSPT1,> 9.99 µM
same,in-vivo BRD9 degradation (normalized concentration),BRD9 [6],dose dependent in-vivo BRD9 degradation
same,DC50,IKZF1,> 9.99 µM
same,HEPG2 Viability,HEPG2,>9.99 µM
